Test results from patent US20170121315A1, “HETEROBICYCLICALLY SUBSTITUTED 4-OXOBUTANE ACID DERIVATIVES AND USE THEREOF” (priority 2014, published 2017).

Key:
Assay type in all cases: biochemical
MMP-1 = molecular target: T1, MMP-1 (Homo sapiens, UniProt P03956); test: In vitro MMP-1 inhibition test; details: human MMP-1
T1 construct: purchased R&D Systems 901-MP
T1 sequence (P03956 100-469): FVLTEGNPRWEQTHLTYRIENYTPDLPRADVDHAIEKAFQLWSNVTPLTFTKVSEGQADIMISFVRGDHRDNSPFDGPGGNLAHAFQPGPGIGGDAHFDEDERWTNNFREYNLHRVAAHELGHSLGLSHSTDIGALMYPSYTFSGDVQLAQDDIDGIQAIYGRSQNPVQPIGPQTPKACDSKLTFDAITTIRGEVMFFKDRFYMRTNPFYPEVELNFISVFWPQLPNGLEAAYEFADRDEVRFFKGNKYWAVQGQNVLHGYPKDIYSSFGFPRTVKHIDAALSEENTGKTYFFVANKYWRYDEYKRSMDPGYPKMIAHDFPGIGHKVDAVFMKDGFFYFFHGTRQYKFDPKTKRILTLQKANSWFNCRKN
Excerpt: (§1) The MMP-mediated amidolytic cleavage of a suitable peptide substrate leads to an increase in fluorescent light here too. The signal intensity of the fluorescent light is directly proportional to the enzyme activity. The active concentration of a test compound at which half the enzyme is inhibited (50% signal intensity of the fluorescent light) is reported as the IC50 value.
(§2) Recombinant MMP-1 (R&D Systems, 901-MP) is chemically activated in accordance with the manufacturer's instructions using APMA. 1 μl of the test compound to be analysed (as a solution in DMSO, suitable concentrations e.g. 1 nM to 30 μM) is pipetted into 24 μl of activated enzyme (final concentration e.g. 2 nM) in reaction buffer (50 mM Tris/HCl pH 7.5, 10 mM CaCl2, 150 mM NaCl, 0.05% Brij®-35) in a white 384-hole microtiter plate (MTP). The enzymatic reaction is started by adding the intramolecularly quenched Mca-Pro-Leu-Gly-Leu-Dpa(Dnp)-Ala-Arg-NH2 substrate (final concentration e.g. 10 μM; R&D Systems, ES-001), so as to result in a total test volume of 50 μl. The course of the MMP-1 reaction is measured by measuring the fluorescence intensity (excitation 320 nm, emission 410 nm) over a suitable period of time (e.g. over 120 min at a temperature of 32° C.).

MMP-10 = molecular target: T2, MMP-10 (Homo sapiens, UniProt P09238); test: In vitro MMP-10 inhibition test; details: human MMP-10
T2 construct: purchased R&D Systems 910-MP
T2 sequence (P09238 99-476): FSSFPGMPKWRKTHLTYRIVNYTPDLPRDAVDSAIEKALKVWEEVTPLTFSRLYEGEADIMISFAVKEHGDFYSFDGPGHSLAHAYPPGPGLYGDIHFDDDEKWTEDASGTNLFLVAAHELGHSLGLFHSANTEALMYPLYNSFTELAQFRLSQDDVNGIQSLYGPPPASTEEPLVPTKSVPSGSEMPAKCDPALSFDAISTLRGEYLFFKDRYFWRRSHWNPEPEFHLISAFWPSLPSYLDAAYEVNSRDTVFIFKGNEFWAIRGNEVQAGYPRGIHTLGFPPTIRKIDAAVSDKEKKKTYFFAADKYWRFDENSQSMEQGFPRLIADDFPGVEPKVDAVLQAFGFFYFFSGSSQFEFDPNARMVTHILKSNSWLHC
Excerpt: as §1
as §2, with “MMP-10” for “MMP-1”, “910-MP)” for “901-MP)”, “Mca-Arg-Pro-Lys-Pro-Val-Glu-Nval-Trp-Arg-Lys(Dnp)-NH2” for “Mca-Pro-Leu-Gly-Leu-Dpa(Dnp)-Ala-Arg-NH2”, “ES-002),” for “ES-001),”

MMP-13 = molecular target: T3, MMP-13 (Homo sapiens, UniProt P45452); test: In vitro MMP-13 inhibition test; details: human MMP-13
T3 construct: purchased R&D Systems 511-MP
Excerpt: as §1
as §2, with “Recombinant MMP-13” for “Recombinant MMP-1”, “Systems, 511-MP)” for “Systems, 901-MP)”, “e.g. 0.1” for “e.g. 2”, “the MMP-13” for “the MMP-1”

MMP-16 = molecular target: T4, MMP-16 (Homo sapiens, UniProt P51512); test: In vitro MMP-16 inhibition test; details: human MMP-16
T4 construct: purchased R&D Systems 1785-MP
T4 sequence (P51512 120-564 limits assumed): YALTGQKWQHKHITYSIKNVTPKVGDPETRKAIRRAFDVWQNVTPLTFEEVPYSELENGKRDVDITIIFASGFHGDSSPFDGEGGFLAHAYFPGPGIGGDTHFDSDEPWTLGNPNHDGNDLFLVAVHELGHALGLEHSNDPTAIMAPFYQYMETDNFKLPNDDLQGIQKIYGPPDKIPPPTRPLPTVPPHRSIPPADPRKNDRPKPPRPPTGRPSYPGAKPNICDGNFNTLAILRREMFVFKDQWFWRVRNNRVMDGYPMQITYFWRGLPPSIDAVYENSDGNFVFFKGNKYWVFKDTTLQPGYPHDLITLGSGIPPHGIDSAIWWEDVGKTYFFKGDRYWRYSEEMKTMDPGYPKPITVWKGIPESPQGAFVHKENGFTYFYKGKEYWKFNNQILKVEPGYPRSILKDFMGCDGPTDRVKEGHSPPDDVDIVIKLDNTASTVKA
Excerpt: as §1
Recombinant MMP-16 (R&D Systems, 1785-MP) is enzymatically activated in accordance with the manufacturer's instructions using recombinant furin (R&D Systems, 1503-SE). 1 μl of the test compound to be analysed (as a solution in DMSO, suitable concentrations e.g. 1 nM to 30 μM) is pipetted into 24 μl of activated enzyme (final concentration e.g. 1 nM) in reaction buffer (50 mM Tris/HCl pH 7.5, 10 mM CaCl2, 150 mM NaCl, 0.05% Brij®-35) in a white 384-hole microtiter plate (MTP). The enzymatic reaction is started by adding the intramolecularly quenched Mca-Lys-Pro-Leu-Gly-Leu-Dpa(Dnp)-Ala-Arg-NH2 substrate (final concentration e.g. 5 μM; R&D Systems, ES-010), so as to result in a total test volume of 50 μl. The course of the MMP-16 reaction is measured by measuring the fluorescence intensity (excitation 320 nm, emission 410 nm) over a suitable period of time (e.g. over 120 min at a temperature of 32° C.).

| IC50 (MMP-1) [µM] | IC50 (MMP-10) [µM] | IC50 (MMP-13) [µM] | IC50 (MMP-16) [µM] | SMILES |
| --- | --- | --- | --- | --- |
| > 40 | 7.7 | 3.8 | > 40 | O=C(CC(CCn1nnc2ccccc2c1=O)C(=O)O)c1coc2cc(OCCC3CCCC3)ccc12 (racemic) [Example 75, (+/−)-4-[6-(2-Cyclopentylethoxy)-1-benzofur-3-yl]-4-oxo-2-[2-(4-oxo-1,2,3-benzotriazin-3(4H)-yl)ethyl]butanoic acid] |
| > 40 | 22 | 0.67 | > 40 | CCCCCOc1ccc2c(C(=O)CC(CCn3nnc4ccccc4c3=O)C(=O)O)coc2c1 (racemic) [Example 89, (+/−)-4-Oxo-2-[2-(4-oxo-1,2,3-benzotriazin-3(4H)-yl)ethyl]-4-[6-(pentyloxy)-1-benzofur-3-yl]butanoic acid] |
| > 40 | 4.7 | 1.9 | > 40 | O=C(CC(CCn1nnc2ccccc2c1=O)C(=O)O)c1cc2ccc(OCC3CC3)cc2s1 (racemic) [Example 111, (+/−)-4-[6-(Cyclopropylmethoxy)-1-benzothiophen-2-yl]-4-oxo-2-[2-(4-oxo-1,2,3-benzotriazin-3(4H)-yl)ethyl]butanoic acid] |
| > 40 | 3.4 | 0.25 | 28 | O=C(CC(CCn1nnc2ccccc2c1=O)C(=O)O)c1cc2ccc(OCCc3ccccc3)cc2s1 (racemic) [Example 114, (+/−)-4-Oxo-2-[2-(4-oxo-1,2,3-benzotriazin-3(4H)-yl)ethyl]-4-[6-(2-phenylethoxy)-1-benzothiophen-2-yl]butanoic acid] |
| > 40 | 10 | 1.1 | > 40 | CCCCCOc1ccc2cc(C(=O)CC(CCn3nnc4ccccc4c3=O)C(=O)O)sc2c1 (racemic) [Example 118, (+/−)-4-Oxo-2-[2-(4-oxo-1,2,3-benzotriazin-3(4H)-yl)ethyl]-4-[6-(pentyloxy)-1-benzothiophen-2-yl]butanoic acid] |
| > 40 | 12 | 0.97 | 30 | O=C(CC(CCn1nnc2ccccc2c1=O)C(=O)O)c1noc2cc(OCc3ccc(F)cc3)ccc12 (racemic) [Example 136, (+/−)-4-{6-[(4-Fluorobenzyl)oxy]-1,2-benzoxazol-3-yl}-4-oxo-2-[2-(4-oxo-1,2,3-benzotriazin-3(4H)-yl)ethyl]butanoic acid] |
| > 40 | 6.3 | 0.33 | 24 | CCCCCOc1ccc2c(C(=O)CC(CCn3nnc4ccccc4c3=O)C(=O)O)noc2c1 (racemic) [Example 140, (+/−)-4-Oxo-2-[2-(4-oxo-1,2,3-benzotriazin-3(4H)-yl)ethyl]-4-[6-(pentyloxy)-1,2-benzoxazol-3-yl]butanoic acid] |
| > 40 | 29 | 1.6 | 15 | O=C(CC(CCn1nnc2ccccc2c1=O)C(=O)O)c1noc2cc(OCCc3ccccc3)ccc12 (racemic) [Example 144, (+/−)-4-Oxo-2-[2-(4-oxo-1,2,3-benzotriazin-3(4H)-yl)ethyl]-4-[6-(2-phenylethoxy)-1,2-benzoxazol-3-yl]butanoic acid] |
| > 40 | 10 | 1.5 | 25 | O=C(CC(CCn1nnc2ccccc2c1=O)C(=O)O)c1noc2cc(OCc3ccccc3)ccc12 (racemic) [Example 145, (+/−)-4-[6-(Benzyloxy)-1,2-benzoxazol-3-yl]-4-oxo-2-[2-(4-oxo-1,2,3-benzotriazin-3(4H)-yl)ethyl]butanoic acid] |
| > 40 | 0.2 | 0.5 | > 40 | O=C(CC(CCn1nnc2ccccc2c1=O)C(=O)O)c1noc2cc(OCc3cccnc3)ccc12 (racemic) [Example 148, (+/−)-4-Oxo-2-[2-(4-oxo-1,2,3-benzotriazin-3(4H)-yl)ethyl]-4-[6-(pyridin-3-ylmethoxy)-1,2-benzoxazol-3-yl]butanoic acid] |
| > 40 | > 40 | 2.4 | 11 | O=C(CC(CCn1nnc2ccccc2c1=O)C(=O)O)c1noc2cc(OCC3CC3)ccc12 (racemic) [Example 150, (+/−)-4-[6-(Cyclopropylmethoxy)-1,2-benzoxazol-3-yl]-4-oxo-2-[2-(4-oxo-1,2,3-benzotriazin-3(4H)-yl)ethyl]butanoic acid] |
| > 40 | 14 | 2.8 | > 40 | O=C(CC(CCn1nnc2ccccc2c1=O)C(=O)O)c1noc2cc(OCC3CCCCC3)ccc12 (racemic) [Example 153, (+/−)-4-[6-(Cyclohexylmethoxy)-1,2-benzoxazol-3-yl]-4-oxo-2-[2-(4-oxo-1,2,3-benzotriazin-3(4H)-yl)ethyl]butanoic acid] |
| > 40 | 3.3 | 2.3 | 13 | O=C(CC(CCn1nnc2ccc(C(F)(F)F)cc2c1=O)C(=O)O)c1noc2cc(OCc3ccccc3)ccc12 (racemic) [Example 154, (+/−)-4-[6-(Benzyloxy)-1,2-benzoxazol-3-yl]-4-oxo-2-{2-[4-oxo-6-(trifluoromethyl)-1,2,3-benzotriazin-3(4H)-yl]ethyl}butanoic acid] |
| > 40 | 5.1 | 2.7 | 30 | O=C(CC(CCn1nnc2ccc(C(F)(F)F)cc2c1=O)C(=O)O)c1noc2cc(OCC3CCOCC3)ccc12 (racemic) [Example 155, (+/−)-4-Oxo-2-{2-[4-oxo-6-(trifluoromethyl)-1,2,3-benzotriazin-3(4H)-yl]ethyl}-4-[6-(tetrahydro-2H-pyran-4-ylmethoxy)-1,2-benzoxazol-3-yl]butanoic acid] |

| SMILES | IC50 (MMP-1) [µM] | IC50 (MMP-10) [µM] | IC50 (MMP-13) [µM] | IC50 (MMP-16) [µM] |
| --- | --- | --- | --- | --- |
| CCCCCCCOc1ccc2c(C(=O)CC(CCn3nnc4ccccc4c3=O)C(=O)O)coc2c1 (racemic) [Example 101, (+/−)-4-[6-(Heptyloxy)-1-benzofur-3-yl]-4-oxo-2-[2-(4-oxo-1,2,3-benzotriazin-3(4H)-yl)ethyl]butanoic acid] | > 40 | > 40 | 1.1 | > 40 |
